Experimental data taken from patent publication US20040039042A1, “Method of transdermal drug delivery” (priority 2002, published 2004).

Columns and labels:
[1] = cited from earlier work
[2] = Powdered drug mixed with Ocean® and rubbed into the skin over arthritic joints of patients; assay type: in vivo, human; conditions: for side effects normally encountered when taking the drug: patients unable to continue the drugs because of GI toxicity, transdermal application in Ocean®
From the text: The present invention is a method for delivering drugs transdermally, especially insoluble drugs. The powdered form of a drug, such as that contained in the capsules of Vioxx® and Celebrex®, was mixed with Ocean® to form a mixture. The mixture was then rubbed into the skin at the needed location, for example, an arthritic joint, by volunteer subjects suffering from arthritis in different joints. The Vioxx® or Celebrex® suspension in Ocean® then penetrated the outer layer of the skin, traveled through the stratum corneum, dermis, and hypodermis, and entered the target tissue. […] Therefore, the present invention provides a method of delivery for NSAIDs, such as Vioxx® and Celebrex®, that can inhibit COX-2 at the inflammation site, without ever entering the GI tract, relieving the patient of any GI toxicity that may be caused by the drug.
In summary, the method of this patent for drug delivery has been tried by a few patients with severe arthritis. These patients were unable to continue using either Vioxx® or Celebrex® because of the severe GI toxicity those drugs caused. The patients opened the capsules of the drugs, mixed the powdered drug with Ocean®, and applied the solution to the skin of the arthritic area.

[3] = Application of Carafate® to root canal wounds or dry sockets in dental patients; assay type: in vivo, human; conditions: applied to root canal wounds or dry sockets
From the text: Wounds in the mouth are especially prone to infection because of the dark, moist environment, the availability of energy sources from the food that is eaten, and the large numbers of microbes in the mouth. After a root canal or removal of a tooth, a patient is especially prone to infection since the open wound is an idea location for bacteria to settle, and because such a wound is hard to clean.

Molecule: CS(=O)(=O)c1ccc(C2=C(c3ccccc3)C(=O)OC2)cc1 [Vioxx®, 4-[4-(methyl-sulfonyl)phenyl]-3-phenyl-2(5H)-furanone]
- solubility in acetone ([1]; acetone): sparingly soluble
- solubility in ethanol ([1]; ethanol): very slightly soluble
- solubility in isopropyl acetate ([1]; isopropyl acetate): slightly soluble
- solubility in methanol ([1]; methanol): slightly soluble
- solubility in octanol ([1]; octanol): practically insoluble
- solubility in water ([1]; water): insoluble
- side effects normally encountered when taking the drug [2]: without the side effects
- relief from arthritis ([2]; patients with severe arthritis, powdered drug from capsules mixed with Ocean®, applied to skin of the arthritic area): relief from their arthritis
- time after application until pain and symptoms are reduced ([2]; suspension in Ocean® rubbed into the skin closest to the affected arthritic joint, volunteer subjects): Within minutes

Molecule: Cc1ccc(-c2cc(C(F)(F)F)nn2-c2ccc(S(N)(=O)=O)cc2)cc1 [Celebrex®, 4-[5-(4-methylphenyl)-3-(triflouromethyl)-1 H-pyrazol-1-yl] benzenesulfonamide]
- solubility in aqueous media ([1]; aqueous media): low solubility
- side effects normally encountered when taking the drug [2]: without the side effects

Molecule: α-D-glucopyranoside, β-D-frucofuranosyl-, octakis-(hydrogen sulfate), aluminum complex [Carafate®]
- infection of the wound area ([3]; a number of dental patients): inhibits infection
- healing process ([3]; dental patients): hastens the healing process
- pain and swelling in wounds ([3]; dental patients): reduce pain and swelling
